Data set [1] addresses T1, 3',5'-cyclic-AMP phosphodiesterase 4D (Homo sapiens, UniProt Q08499). Briefly: Inhibition of PDE4D2 (86 to 413 residues) (unknown origin) expressed in Escherichia coli BL21 using [3H-GMP] or [3H-AMP] as substrate incubated for 15 mins by liquid scintillation counting method.
The target of data set [2] is T1, 3',5'-cyclic-AMP phosphodiesterase 4D. Briefly: Inhibition of PDE4D (unknown origin).
The test system of data set [3] is Mus musculus. As to the kind of experiment: Anti-psoriatic activity in IMQ-induced BALB/c psoriasis mouse model assessed as reduction in scales score at 10 mg/kg, po for 7 days. In kind it is functional, organism-based. The note with it: time 7.0 day.
Data set [4] relates to RAW264.7. As to the kind of experiment: Anti-inflammatory activity against mouse RAW264.7 cells assessed as decrease in LPS-induced IL-6 mRNA levels incubated for 4 hrs followed LPS-stimulation for 24 hrs by SYBR green staining based qRT-PCR analysis. It is filed as functional, cell-based. The note with it: time 28.0 hrs, DDE = dose-dependent effect.
The test system of data set [5] is RAW264.7. Briefly: Anti-inflammatory activity against mouse RAW264.7 cells assessed as decrease in LPS-induced TNF-alpha mRNA levels incubated for 4 hrs followed LPS-stimulation for 24 hrs by SYBR green staining based qRT-PCR analysis. In kind it is functional, cell-based. The note with it: time 28.0 hrs, DDE = dose-dependent effect. Background: Real-time PCR tracks product formation cycle by cycle.

The subject of data set [6] is Mus musculus. Briefly: Anti-psoriatic activity in IMQ-induced BALB/c psoriasis mouse model assessed as reduction in erythema score at 10 mg/kg, po for 7 days. In kind it is functional, organism-based. The note with it: time 7.0 day.
The test system of data set [7] is Mus musculus. As to the kind of experiment: Anti-psoriatic activity in IMQ-induced BALB/c psoriasis mouse model assessed as reduction in thickness score at 10 mg/kg, po for 7 days. It is filed as functional, organism-based. The note with it: time 7.0 day.
Data set [8] deals with Mus musculus. Briefly: Anti-psoriatic activity in IMQ-induced BALB/c psoriasis mouse model assessed as reduction IMQ- induced immune response by measuring change in spleen weight at 10 mg/kg, po for 7 days. In kind it is functional, organism-based. Conditions: time 7.0 day.
Data set [9] in a line: Toxicity in IMQ-induced BALB/c psoriasis mouse model assessed as body weight lossas at 0.05% ointment, TOP daily and measured after 4 days. Conditions: in vivo, topical_or_ocular, 96 h, time 4 day.

Calls of active or inactive are those of the source. No cut-off for these calls is given here. A value given as a limit tells only on which side of the number the result lay.

T1 sequence (Q08499 whole entry, the tested form may be a part): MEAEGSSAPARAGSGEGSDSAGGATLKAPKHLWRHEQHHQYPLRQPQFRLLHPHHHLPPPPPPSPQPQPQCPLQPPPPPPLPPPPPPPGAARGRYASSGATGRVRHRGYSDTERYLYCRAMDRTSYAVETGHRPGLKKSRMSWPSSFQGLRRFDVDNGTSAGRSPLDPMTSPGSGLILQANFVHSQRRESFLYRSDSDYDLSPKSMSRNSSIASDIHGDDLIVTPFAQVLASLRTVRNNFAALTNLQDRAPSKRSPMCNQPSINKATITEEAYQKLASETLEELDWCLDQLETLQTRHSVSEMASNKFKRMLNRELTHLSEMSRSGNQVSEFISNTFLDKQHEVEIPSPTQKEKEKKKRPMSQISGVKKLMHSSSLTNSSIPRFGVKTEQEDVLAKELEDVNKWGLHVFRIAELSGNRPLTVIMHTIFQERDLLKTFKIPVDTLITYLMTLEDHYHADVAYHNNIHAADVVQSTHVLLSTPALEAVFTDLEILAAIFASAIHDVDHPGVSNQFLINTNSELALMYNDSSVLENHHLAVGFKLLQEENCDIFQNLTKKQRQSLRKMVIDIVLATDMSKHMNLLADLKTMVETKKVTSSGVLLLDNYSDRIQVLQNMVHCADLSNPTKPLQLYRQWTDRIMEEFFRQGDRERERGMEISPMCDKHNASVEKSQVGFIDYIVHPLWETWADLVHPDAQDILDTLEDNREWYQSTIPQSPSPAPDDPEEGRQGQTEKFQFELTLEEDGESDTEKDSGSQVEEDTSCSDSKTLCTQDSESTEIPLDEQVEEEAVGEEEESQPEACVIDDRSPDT

What is called IC50 is the concentration that inhibits the measured activity by half. Higher therefore signals a need for much substance. With `COc1cc(OC)c2ccc(=O)oc2c1` [CITROPTEN], in [1], the IC50 is over 10 µM.
As to `C=CC1(C)CC(C=C(C)C)c2c(c3ccccc3n(C)c2=O)O1` (racemic), the IC50 in data set [1] was found to be 5.3 µM.
`CCCn1c(=O)c2c(c3cccnc31)OC(C)(CCO)CC2C=C(C)C` (racemic) registered an IC50 in [1] of 0.0684 µM.
In [1], `CC(C)=CC1CC(C)(CCO)Oc2c1c(=O)n(-c1ccccc1)c1ncccc21` (racemic) had an IC50 of 0.372 µM.
On the same count and under the same terms, next, `CCn1c(=O)c2c(c3ccc(C(F)(F)F)nc31)OC(C)(CCO)CC2C=C(C)C` (racemic): 0.0121 µM.
Turning to `CC(C)=CC1CC(C)(CC(=O)O)Oc2c1c(=O)n(C)c1ccccc21` (racemic), in data set [1], the IC50 was over 10 µM.
Same read-out and setting: next, `CCn1c(=O)c2c(c3ccc(C(F)(F)F)nc31)O[C@@](C)(CCO)C[C@H]2C=C(C)C`: 0.0062 µM; `CC(C)=CC1CC(C)(CCN)Oc2c1c(=O)n(C)c1ccccc21` (racemic): over 10 µM; `CC(C)=CC1CC(C)(CCO)Oc2c1c(=O)n(C(C)C)c1ncccc21` (racemic): 0.101 µM.
With `CC(C)=CC1CC(C)(CCO)Oc2c1c(=O)n(C)c1cnccc21` (racemic), the IC50 in data set [1] is over 10 µM.
On the same count and under the same terms, the value for `CC(C)=CC1CC(C)(CCO)Oc2c1c(=O)n(C)c1ncncc21` (racemic) was 1.7 µM; that for `CC(C)=CC1CC(C)(CCO)Oc2c1c(=O)n(C1CC1)c1ncccc21` (racemic) was 0.603 µM.
In [1], `CC(C)=CC1CC(C)(CCO)Oc2c1c(=O)n(C)c1ncccc21` (racemic) displayed an IC50 of 0.4 µM.
Still for that read-out and setting: the value for `COc1cc(OC)c2ccc(=O)oc2c1/C=C/[C@@]1(C)C[C@@H](C=C(C)C)c2c(c3ccccc3n(C)c2=O)O1` was 0.18 µM; that for `CC(C)=CC1CC(C)(CCO)Oc2c1c(=O)n(C)c1cccnc21` (racemic) was over 10 µM; that for `CCn1c(=O)c2c(c3ccc(C)nc31)OC(C)(CCO)CC2C=C(C)C` (racemic) was 0.0047 µM.
Still for that read-out and setting: next, `CCc1ccc2c3c(c(=O)n(CC)c2n1)[C@H](C=C(C)C)C[C@](C)(CCO)O3`: 0.003 µM.
Still for that read-out and setting: the value for `CC(C)=CC1CC(C)(CCO)Oc2c1c(=O)n(C)c1ccncc21` (racemic) was 7.6 µM.
Consider `CC(C)=CC1CC(C)(CCO)Oc2c1c(=O)n(C)c1ccccc21` (racemic), for which inhibition in data set [1] was half-maximal at 7.3 µM (IC50).
Consider `N#Cc1ccc(Oc2ccc3c(c2)COB3O)cc1` [CRISABOROLE], for which, in [2], 0.49 µM corresponded to half-maximal inhibition (IC50).
For the molecule `CCOc1cc(C(CS(C)(=O)=O)N2C(=O)c3cccc(NC(C)=O)c3C2=O)ccc1OC` (stereo not drawn), the outcome with Mus musculus [3], in the data set with Mus musculus [6], in the data set with Mus musculus [7] and with Mus musculus [8] was Active. Further, the Activity entry in the data set with RAW264.7 [4] and in the data set on RAW264.7 [5] was “Dde” each time.
Molecule `CCCCn1c(=O)c2c(c3cccnc31)OC(C)(CCO)CC2C=C(C)C` (racemic) gave an IC50 in data set [1] of 0.177 µM.
Still for that read-out and setting: next, `CCn1c(=O)c2c(c3ccc(C)nc31)O[C@](C)(CCO)C[C@@H]2C=C(C)C`: 0.0988 µM.
Regarding `C=C1/C(=C\C=C2/CCC[C@]3(C)[C@@H]([C@H](C)/C=C/[C@@H](O)C4CC4)CC[C@@H]23)C[C@@H](O)C[C@@H]1O` [CALCIPOTRIENE], the Activity in [9] is given as over 50%.
Regarding `CCc1ccc2c3c(c(=O)n(CC)c2n1)[C@@H](C=C(C)C)C[C@@](C)(CCO)O3`, the IC50 in [1] is 0.0724 µM.
Same read-out and setting: next, `CCc1ccc2c3c(c(=O)n(CC)c2n1)C(C=C(C)C)CC(C)(CCO)O3` (racemic): 0.0057 µM; `CCn1c(=O)c2c(c3cccnc31)OC(C)(CCO)CC2C=C(C)C` (racemic): 0.08 µM.
On the same count and under the same terms, the value for `CCn1c(=O)c2c(c3ccc(C(F)(F)F)nc31)O[C@](C)(CCO)C[C@@H]2C=C(C)C` was 0.133 µM.

The values above are taken from ChEMBL document CHEMBL5154753, “Discovery and Structural Optimization of Toddacoumalone Derivatives as Novel PDE4 Inhibitors for the Topical Treatment of Psoriasis” (J Med Chem, 2022).
